Assay results: patent US12527779B2, “Prostaglandin E2 (PGE2) EP4 receptor antagonists” (Domain Therapeutics, priority 2019, dated 2026)
Where a name gives a salt, the structure may show the parent alone.

What follows are molecules tested against T1, human EP4 (hEP4) receptor (Homo sapiens, UniProt P35408) (assay: In vitro human EP4 functional antagonist activity using BRET biosensors (cAMP EPAC biosensor, TCS2510 stimulation)). Conditions: antagonist activity vs EC60 TCS2510, hEP4 in HEK-293 T cells.
T1 construct: expressed in transfected cells; host or cells: HEK-293 T cells, transient co-transfection with polyethylenimine
Assay type: cell-based
Procedure, shortened: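 HEK-293T cells transiently co-transfected with hEP4 and EPAC cAMP BRET biosensor (luciferase/GFP), assayed 48 h later in HEPES-buffered saline after 1 h at 22 °C. After 5 min with compound, cells stimulated with EC60 TCS2510 and BRET read for 10 min; IC50 from 10-point, 4.5-log variable-slope fits, duplicate, two experiments.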

T1 sequence (P35408 whole entry): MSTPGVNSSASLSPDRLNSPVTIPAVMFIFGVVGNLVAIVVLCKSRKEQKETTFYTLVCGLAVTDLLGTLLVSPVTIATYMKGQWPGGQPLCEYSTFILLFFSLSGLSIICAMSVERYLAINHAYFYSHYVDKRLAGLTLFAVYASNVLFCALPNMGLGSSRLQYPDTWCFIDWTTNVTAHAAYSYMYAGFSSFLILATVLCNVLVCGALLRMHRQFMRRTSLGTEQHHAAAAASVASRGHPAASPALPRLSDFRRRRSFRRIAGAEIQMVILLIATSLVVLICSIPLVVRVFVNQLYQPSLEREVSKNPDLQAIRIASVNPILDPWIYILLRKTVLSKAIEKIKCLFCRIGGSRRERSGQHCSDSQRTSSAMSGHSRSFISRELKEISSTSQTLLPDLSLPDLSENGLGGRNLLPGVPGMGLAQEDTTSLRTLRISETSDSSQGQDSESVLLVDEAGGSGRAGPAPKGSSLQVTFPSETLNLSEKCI

| SMILES | IC50 |
| --- | --- |
| C[C@H](NC(=O)C1(N2CC[C@@H](Oc3cccc(C(F)(F)F)c3)C2)CCOCC1)c1ccccc1F [Example 189, N—((S)-1-(2-Fluorophenyl)ethyl)-4-((R)-3-(3-(trifluoromethyl)phenoxy)pyrrolidin-1-yl)tetrahydro-2H-pyran-4-carboxamide, hydrochloride] | < 1000 nM |
| C[C@H](NC(=O)C1(N2CC[C@@H](Oc3cccc(C(F)(F)F)c3)C2)CCOCC1)c1ccc(Br)cc1 [Example 190, N—((S)-1-(4-Bromophenyl)ethyl)-4-((R)-3-(3-(trifluoromethyl)phenoxy)pyrrolidin-1-yl)tetrahydro-2H-pyran-4-carboxamide, hydrochloride] | < 1000 nM |
| C[C@H](NC(=O)C1(N2CC[C@@H](Oc3cccc(C(F)(F)F)c3)C2)CCOCC1)c1cccc(Cl)c1 [Example 191, N—((S)-1-(3-Chlorophenyl)ethyl)-4-((R)-3-(3-(trifluoromethyl)phenoxy)pyrrolidin-1-yl)tetrahydro-2H-pyran-4-carboxamide, hydrochloride] | < 1000 nM |
| C[C@H](NC(=O)C1(N2CC[C@@H](Oc3cccc(C(F)(F)F)c3)C2)CCOCC1)c1ccccc1Cl [Example 192, N—((S)-1-(2-Chlorophenyl)ethyl)-4-((R)-3-(3-(trifluoromethyl)phenoxy)pyrrolidin-1-yl)tetrahydro-2H-pyran-4-carboxamide, hydrochloride] | < 1000 nM |
| Cc1ccc([C@H](C)NC(=O)C2(N3CC[C@@H](Oc4cccc(C(F)(F)F)c4)C3)CCOCC2)cc1 [Example 193, N—((S)-1-(4-Methylphenyl)ethyl)-4-((R)-3-(3-(trifluoromethyl)phenoxy)pyrrolidin-1-yl)tetrahydro-2H-pyran-4-carboxamide, hydrochloride] | < 1000 nM |
| Cc1cccc([C@H](C)NC(=O)C2(N3CC[C@@H](Oc4cccc(C(F)(F)F)c4)C3)CCOCC2)c1 [Example 194, N—((S)-1-(3-Methylphenyl)ethyl)-4-((R)-3-(3-(trifluoromethyl)phenoxy)pyrrolidin-1-yl)tetrahydro-2H-pyran-4-carboxamide, hydrochloride] | < 1000 nM |
| COc1ccc([C@H](C)NC(=O)C2(N3CC[C@@H](Oc4cccc(C(F)(F)F)c4)C3)CCOCC2)cc1 [Example 195, N—((S)-1-(4-Methoxyphenyl)ethyl)-4-((R)-3-(3-(trifluoromethyl)phenoxy)pyrrolidin-1-yl)tetrahydro-2H-pyran-4-carboxamide, hydrochloride] | < 100 nM |
| COc1cccc([C@H](C)NC(=O)C2(N3CC[C@@H](Oc4cccc(C(F)(F)F)c4)C3)CCOCC2)c1 [Example 196, N—((S)-1-(3-Methoxyphenyl)ethyl)-4-((R)-3-(3-(trifluoromethyl)phenoxy)pyrrolidin-1-yl)tetrahydro-2H-pyran-4-carboxamide, hydrochloride] | < 1000 nM |
| COc1ccccc1[C@H](C)NC(=O)C1(N2CC[C@@H](Oc3cccc(C(F)(F)F)c3)C2)CCOCC1 [Example 197, N—((S)-1-(2-Methoxyphenyl)ethyl)-4-((R)-3-(3-(trifluoromethyl)phenoxy)pyrrolidin-1-yl)tetrahydro-2H-pyran-4-carboxamide, hydrochloride] | < 1000 nM |
| Cc1cc(C2(NC(=O)C3(N4CC[C@@H](Oc5cccc(C(F)(F)F)c5)C4)CCOCC3)CC2)ccc1C(=O)O [Example 198, (R)-2-Methyl-4-(1-(4-(3-(3-(trifluoromethyl)phenoxy)pyrrolidin-1-yl)tetrahydro-2H-pyran-4-carboxamido)cyclopropyl)benzoic acid, hydrochloride] | < 100 nM |

Second part, the molecule after the results:

| IC50 | SMILES |
| --- | --- |
| < 100 nM | O=C(NC[C@H]1CC[C@H](C(=O)O)CC1)C1(N2CC[C@@H](Oc3cccc(C(F)(F)F)c3)C2)CCOCC1 [Example 200, (1R,4R)-4-((4-((R)-3-(3-(Trifluoromethyl)phenoxy)pyrrolidin-1-yl)tetrahydro-2H-pyran-4-carboxamido)methyl)cyclohexane-1-carboxylic acid, hydrochloride] |
| < 100 nM | CC(C)(C(=O)NC[C@H]1CC[C@H](C(=O)O)CC1)N1CC[C@@H](Oc2cccc(C(F)(F)F)c2)C1 [Example 201, (1R,4R)-4-((2-Methyl-2-((R)-3-(3-(trifluoromethyl)phenoxy)pyrrolidin-1-yl)propanamido)methyl)cyclohexane-1-carboxylic acid, hydrochloride] |
| < 1000 nM | C[C@H](NC(=O)C(C)(C)N1CC[C@@H](Oc2cccc(C(F)(F)F)c2)C1)c1ccc(S(N)(=O)=O)cc1 [Example 203, 2-Methyl-N—((S)-1-(4-sulfamoylphenyl)ethyl)-2-((R)-3-(3-(trifluoromethyl)phenoxy)pyrrolidin-1-yl)propanamide, hydrochloride] |
| < 1000 nM | C[C@H](NC(=O)C(C)(C)N1CC[C@@H](Oc2cccc(C(F)(F)F)c2)C1)c1ccc(S(C)(=O)=O)cc1 [Example 204, 2-Methyl-N—((S)-1-(4-(methylsulfonyl)phenyl)ethyl)-2-((R)-3-(3-(trifluoromethyl)phenoxy)pyrrolidin-1-yl)propanamide, hydrochloride] |
| < 100 nM | C[C@H](NC(=O)C(C)(C)N1CC[C@@H](Oc2cccc(C(F)(F)F)c2)C1)c1ccc(S(C)(=N)=O)cc1 (stereo partly drawn) [Example 205, 2-Methyl-N-((1S)-1-(4-(S-methylsulfonimidoyl)phenyl)ethyl)-2-((R)-3-(3-(trifluoromethyl)phenoxy)pyrrolidin-1-yl)propanamide, hydrochloride] |
| < 100 nM | C[C@H](NC(=O)C(C)(C)N1CC[C@@H](COc2cccc(Cl)c2)C1)c1ccc(C(=O)O)cc1 [Example 209, 4-((S)-1-(2-((R)-3-((3-Chlorophenoxy)methyl)pyrrolidin-1-yl)-2-methylpropanamido)ethyl)benzoic acid] |
| < 100 nM | CCC(CC)(C(=O)N[C@@H](C)c1ccc(C(=O)O)cc1)N1CC[C@@H](Oc2cccc(Cl)c2)C1 [Example 210, 4-[(1S)-1-[[2-[(3R)-3-(3-Chlorophenoxy)pyrrolidin-1-yl]-2-ethylbutane-carbonyl]amino]ethyl]benzoic acid, hydrochloride] |
